Assay results taken from ChEMBL document CHEMBL3044861, “Synthesis and Herbicidal Activity of New 2-(1-Carbamoyl-1, 2, 4-triazol-3-ylsulfonyl) alkanoates” (J Pestic Sci, 2002).

How the values were obtained:
[1] = Octanol-water partition coefficient, log K of the compound; type: physicochemical; conditions: read-out: log K
[2] = system: Echinochloa oryzicola; assay: Herbicidal activity against Echinochloa oryzicola assessed as killing pre-emergence application under paddy conditions; type: functional
[3] = system: Echinochloa crus-galli; assay: Herbicidal activity against Echinochloa crus-galli (barnyard grass) assessed as killing at 500 g/ha pre-emergence application upland paddy conditions measured after 14 days; type: functional
[4] = Herbicidal activity against broadleaf weed assessed as killing at 50 g/ha pre-emergence application under paddy conditions; type: functional
[5] = system: Zea mays; assay: Herbicidal activity against Zea mays (maize)assessed as killing at 500 g/ha pre-emergence application upland paddy conditions measured after 14 days; type: functional
[6] = system: Schoenoplectiella juncoides; assay: Herbicidal activity against Schoenoplectiella juncoides assessed as killing at 50 g/ha pre-emergence application under paddy conditions; type: functional
[7] = system: Pontederia vaginalis; assay: Herbicidal activity against Monochoria vaginalis assessed as killing at 50 g/ha pre-emergence application under paddy conditions; type: functional
[8] = system: Echinochloa oryzicola; assay: Herbicidal activity against Echinochloa oryzicola assessed as killing at 50 g/ha pre-emergence application under paddy conditions; type: functional
[9] = system: Digitaria ciliaris; assay: Herbicidal activity against Digitaria ciliaris assessed as killing at 500 g/ha pre-emergence application upland paddy conditions measured after 14 days; type: functional
[10] = system: Oryza sativa; assay: Toxicity in Oryza sativa (rice) assessed as injury at 50 g/ha pre-emergence application under paddy conditions by crop safety assay; type: organism-based; conditions: in vivo, other
[11] = system: Chenopodium album; assay: Herbicidal activity against Chenopodium album assessed as killing at 500 g/ha pre-emergence application upland paddy conditions measured after 14 days; type: functional
[12] = system: Pontederia vaginalis; assay: Herbicidal activity against Monochoria vaginalis assessed as killing at 25 g/ha pre-emergence application under paddy conditions; type: functional
[13] = system: Echinochloa oryzicola; assay: Herbicidal activity against Echinochloa oryzicola assessed as killing at 25 g/ha pre-emergence application under paddy conditions; type: functional
[14] = system: Oryza sativa; assay: Toxicity in Oryza sativa (rice) assessed as injury at 25 g/ha pre-emergence application under paddy conditions by crop safety assay; type: organism-based; conditions: in vivo, other
[15] = Herbicidal activity against broadleaf weed assessed as killing at 25 g/ha pre-emergence application under paddy conditions; type: functional
[16] = system: Schoenoplectiella juncoides; assay: Herbicidal activity against Schoenoplectiella juncoides assessed as killing at 25 g/ha pre-emergence application under paddy conditions; type: functional
[17] = system: Schoenoplectiella juncoides; assay: Herbicidal activity against Schoenoplectiella juncoides assessed as killing at 10 g/ha pre-emergence application under paddy conditions; type: functional
[18] = Herbicidal activity against broadleaf weed assessed as killing at 10 g/ha pre-emergence application under paddy conditions; type: functional
[19] = system: Echinochloa oryzicola; assay: Herbicidal activity against Echinochloa oryzicola assessed as killing at 10 g/ha pre-emergence application under paddy conditions; type: functional
[20] = system: Pontederia vaginalis; assay: Herbicidal activity against Monochoria vaginalis assessed as killing at 10 g/ha pre-emergence application under paddy conditions; type: functional
[21] = system: Oryza sativa; assay: Toxicity in Oryza sativa (rice) assessed as injury at 10 g/ha pre-emergence application under paddy conditions by crop safety assay; type: organism-based; conditions: in vivo, other

Structure (SMILES)	logP [1]	log(1/ED80) [2]	Activity [3]	Activity [4]	Activity [5]	Activity [6]	Activity [7]	Activity [8]	Activity [9]	Activity [10]	Activity [11]	Activity [12]	Activity [13]	Activity [14]	Activity [15]	Activity [16]	other results
CCC(C)CC(C(=O)OC)S(=O)(=O)c1ncn(C(=O)N(CC)CC)n1 (centres undefined)	0.79	0.99	90%	80%	20%	80%	40%	90%	90%	10%	100%	–	–	–	–	–	–
CCN(CC)C(=O)n1cnc(S(=O)(=O)C(C(=O)OC)C2CCCC2)n1 (centres undefined)	0.69	1.27	90%	90%	80%	100%	100%	100%	90%	10%	90%	–	–	–	–	–	–
CCN(CC)C(=O)n1cnc(S(=O)(=O)C(CC(C)C)C(=O)OC)n1 (centres undefined)	0.68	1.26	100%	100%	40%	100%	100%	100%	100%	10%	100%	50%	100%	10%	70%	80%	–
CCCCOC(=O)C(CC(C)C)S(=O)(=O)c1ncn(C(=O)N(CC)CC)n1 (centres undefined)	1.04	1.3	–	80%	–	100%	100%	100%	–	10%	–	90%	100%	10%	60%	100%	–
CCCCCOC(=O)C(CC(C)C)S(=O)(=O)c1ncn(C(=O)N(CC)CC)n1 (centres undefined)	1.18	0.62	–	60%	–	40%	10%	40%	–	10%	–	10%	40%	10%	30%	10%	–
C=C(C)CC(C(=O)OC)S(=O)(=O)c1ncn(C(=O)N(CC)CC)n1 (centres undefined)	0.63	0.95	100%	90%	40%	60%	100%	90%	100%	10%	100%	–	–	–	–	–	–
CCN(CC)C(=O)n1cnc(S(=O)(=O)C(CCCC#N)C(=O)OC)n1 (centres undefined)	0.41	0.05	90%	10%	70%	10%	10%	10%	90%	10%	90%	–	–	–	–	–	–
CCN(CC)C(=O)n1cnc(S(=O)(=O)[C@H](CC(C)C)C(=O)OC(C)C)n1	–	–	–	–	–	–	–	–	–	–	–	40%	90%	10%	60%	40%	Activity [17]: 10%; Activity [18]: 40%; Activity [19]: 50%; Activity [20]: 10%; Activity [21]: 10%
CCN(CC)C(=O)n1cnc(S(=O)(=O)c2c(C)cc(C)cc2C)n1 [CAFENSTROLE]	–	–	90%	100%	60%	100%	100%	100%	90%	10%	100%	100%	100%	10%	90%	90%	–
CCN(CC)C(=O)n1cnc(S(=O)(=O)C(CC2CCCCC2)C(=O)OC)n1 (centres undefined)	0.94	1.2	40%	50%	20%	10%	10%	100%	10%	10%	40%	–	–	–	–	–	–
CCN(CC)C(=O)n1cnc(S(=O)(=O)C(CC(C)C)C(=O)OCC(C)C)n1 (centres undefined)	1.03	0.91	–	60%	–	100%	100%	80%	–	10%	–	40%	40%	10%	30%	30%	–
CCN(CC)C(=O)n1cnc(S(=O)(=O)C(CC(C)C)C(=O)OC(C)(C)C)n1 (centres undefined)	0.99	1	–	10%	–	10%	10%	90%	–	10%	–	10%	30%	10%	10%	10%	–
CCC(CC)C(C(=O)OC)S(=O)(=O)c1ncn(C(=O)N(CC)CC)n1 (centres undefined)	0.76	1.4	100%	90%	30%	80%	100%	100%	90%	10%	90%	–	–	–	–	–	–
CCCOC(=O)C(CC(C)C)S(=O)(=O)c1ncn(C(=O)N(CC)CC)n1 (centres undefined)	0.9	1.41	–	100%	–	100%	100%	100%	–	10%	–	60%	90%	10%	60%	70%	–
CCN(CC)C(=O)n1cnc(S(=O)(=O)C(Cc2ccccc2)C(=O)OC)n1 (centres undefined)	0.69	0.6	10%	10%	10%	10%	10%	50%	10%	10%	30%	–	–	–	–	–	–
CCN(CC)C(=O)n1cnc(S(=O)(=O)C(CC(=O)OC)C(=O)OC)n1 (centres undefined)	0.45	-0.04	50%	10%	10%	10%	10%	10%	60%	10%	30%	–	–	–	–	–	–
CCCCC(C(=O)OC)S(=O)(=O)c1ncn(C(=O)N(CC)CC)n1 (centres undefined)	0.69	0.9	90%	30%	50%	10%	40%	90%	90%	10%	100%	–	–	–	–	–	–
CCC(C(=O)OC)S(=O)(=O)c1ncn(C(=O)N(CC)CC)n1 (centres undefined)	0.49	0.74	60%	10%	30%	10%	10%	60%	50%	10%	40%	–	–	–	–	–	–
CCN(CC)C(=O)n1cnc(S(=O)(=O)CC(=O)OC)n1	0.36	0.18	40%	10%	10%	10%	10%	10%	50%	10%	30%	–	–	–	–	–	–
CCCC(C(=O)OC)S(=O)(=O)c1ncn(C(=O)N(CC)CC)n1 (centres undefined)	0.58	1.14	100%	60%	50%	60%	60%	100%	100%	10%	100%	–	–	–	–	–	–
CCOC(=O)C(CC(C)C)S(=O)(=O)c1ncn(C(=O)N(CC)CC)n1 (centres undefined)	0.78	1.27	–	60%	–	90%	90%	100%	–	10%	–	40%	90%	10%	50%	30%	–
